# How the values were obtained:
# [1] = system: TNF-α; experiment: ELISA of TNF-α secreted by LPS-treated THP-1 macrophages; type: cell-based, human; conditions: 1 μg/ml LPS, 200 μM peptide, 24 hours, compared with 20 ng/ml IL-4
# Method: (§1) Anti-inflammatory activity was verified using human monocyte cell lines (THP-1, ATCC, TIB-202). In the case of monocyte cell lines, PMA (Phorbol 12-myristate 13-acetate, Merck, P1585) was inoculated to differentiate monocytes into macrophages, and then treated with 1 μg/ml LPS (lipopolysaccharide, Merck, L3024), an inflammation inducer. […] The amount of pro-inflammatory cytokines IL-6 (R&D system, D6050) and TNF-α secreted by cells present in the medium was confirmed through ELISA (enzyme-linked immunosorbent assay).
# [2] = system: phosphorylated NF-κB; experiment: Western blot of pNFkB in LPS-treated Raw264.7 cells; type: cell-based, mouse
# Method: (§2) Raw264.7 cells were purchased from ATCC (American Type Culture Collection) and used in the experiment. Raw264.7 cells were cultured in a CO2 incubator at 37° C. supplied with 5% CO2 and 95% air using DMEM (Dulbecco's modified Eagle medium) medium supplemented with 10% FBS and 100 units/ml antibiotics (penicillin-streptomycin).
# (§3) Raw264.7 cells were treated with 200 μM of the peptide having the amino acid sequence of SEQ ID NO: 1 for 30 minutes, and then treated with 1 μg/ml LPS (lipopolysaccharide, Merck, L3024). After 8 hours, the treated cells were collected, protease inhibitor cocktail and phosphatase inhibitor cocktail were added to Radioimmunoprecipitation assay buffer (RIPA buffer solution, Thermo Fisher, 89900), and the cells were treated to lyse the cells. After centrifuging the cell lysate and collecting the supernatant, the concentration of the cell lysate was measured using a bicinchoninic acid assay (BCA assay, Thermo Fisher, 23227), and RIPA buffer solution was added thereto to prepare the cell lysate to a final concentration of 5 mg/mL. Then, it was mixed with a buffer solution including 1M Tris-HCl (pH 6.8), 50% glycerol, and 10% SDS in a 4:1 ratio, and then sodium dodecyl sulfate-poly acrylamide gel electrophoresis (SDS-PAGE) was performed. […]
# [3] = system: Porphyromonas gingivalis; experiment: Inhibiting growth of periodontitis-causing bacteria (absorbance 600 nm); type: cell-based; conditions: Pg
# Method: (§4) To evaluate the antibacterial activity, representative periodontitis-causing bacteria, Aggregatibacter actinomycetemcomitans and Porphyromonas gingivalis, were used. Each bacterium was inoculated into BHI (brain heart infusion) liquid medium and cultured in an anaerobic incubator at 37° C. and 120 rpm for 48 hours. After incubation, the peptide having the amino acid sequence of SEQ ID NO: 1 was treated at 100 μM, 250 μM, and 500 μM. As a positive control, minocycline (Merck, M9511) was inoculated at 500 ng/ml, and then 24 hours later, the absorbance was measured at 600 nm using a spectrophotometer to confirm a degree of bacterial growth.
# [4] = system: Aggregatibacter actinomycetemcomitans; experiment: as above; type: cell-based; conditions: Aa
# Method: as §4
# [5] = system: Raw264.7 cells; experiment: Cell penetration ability at the cellular level (confocal microscopy); type: cell-based, mouse; conditions: Rhodamine B labeled peptide, 50, 100 and 200 μM, 1 hour
# Method: Raw264.7 cells were distributed 3×10^4 each into a 4-well chamber and cultured in DMEM medium for 24 hours to stabilize the cells. After 24 hours, fluorescently labeled peptide was added to the medium at concentrations of 50, 100, and 200 μM. After 1 hour of peptide treatment, a degree of penetration of the peptide into cells was observed using a confocal scanning fluorescence microscope. Cell nuclei were stained using 4′,6-diamidino-2-phenylindole (DAPI, Thermo Fisher, D1306). DIC represents the case observed under a general microscope, Nuceli represents the nucleus of a cell, Peptide represents the degree of penetration of a peptide bound to rhodamine B, and MERGE represents an image that overlaps images of DIC, Nuclei, and the penetrated peptide.
# [6] = system: artificial biofilm of Aggregatibacter actinomycetemcomitans and Porphyromonas gingivalis; experiment: Antibacterial activity in artificial biofilm on titanium disk (LIVE/DEAD staining); type: cell-based; conditions: 24 hours after inoculation; 50 μg/ml = 29 μM
# Method: Periodontitis-causing bacteria exist in the oral cavity in a form of a biofilm, and thus in order to imitate this, an artificial biofilm was created on the surface of a titanium disk using A. a. (Aggregatibacter actinomycetemcomitans) and P. g. (Porphyromonas gingivalis) bacteria. Saliva and bacteria were mixed on a titanium disk, placed in BHI liquid medium, and cultured in an anaerobic incubator at 37° C. After 72 hours, 50 μg/ml (=29 μM), 100 μg/ml (=58 μM), 250 μg/ml (=144 μM), and 500 μg/ml (=288 μM) peptides and 1 μg/ml minocycline as a positive control were inoculated. 24 hours later after inoculation, a titanium disk with biofilm formed on the surface was obtained and the biofilm was stained using the Filmtracer LIVE/DEAD Biofilm Viability Kit (Thermo Fisher, L10316). Live bacteria are stained green, and dead bacteria are stained red. The titanium disk was observed using a confocal scanning fluorescence microscope.
# [7] = system: IL-6; experiment: ELISA of IL-6 secreted by LPS-treated THP-1 macrophages; type: cell-based, human; conditions: 1 μg/ml LPS, 200 μM peptide, 24 hours, compared with 20 ng/ml IL-4
# Method: as §1
# [8] = system: phosphorylated IκBα; experiment: Western blot of plkBa in LPS-treated Raw264.7 cells; type: cell-based, mouse
# Method: as §2, §3
# [9] = 200 μM peptide for 30 minutes, then 1 μg/ml LPS, 8 hours
sequence,measurement,setting,value
"GKCSTRGRKSSRRKK (PEPTIDE HAVING ANTIBACTERIAL, …ON OR TISSUE …ON) [SEQ ID NO: 1, 15-mer peptide having antibacterial, anti-inflammatory and cell penetrating ability]",TNF-α value,[1],lowered to a similar level as when treated with IL-4
same,expression of pNFκB,[2]; [9],suppressed
same,effect on the expression of pNFκB,"[2]; only the peptide, without LPS",no effect
same,effect compared to minocycline,"[3]; all concentration ranges (100, 250, 500 μM) vs minocycline 500 ng/ml",better effect than minocycline
same,survival rate of bacteria,"[3]; at 100 μM or more, 24 hours",less than or equal to 50%
same,survival rate of bacteria,"[4]; at 250 μM or more, 24 hours",less than or equal to 50%
same,survival rate compared to minocycline,[4]; peptide 500 μM vs minocycline 500 ng/ml,"higher than when treated with minocycline 500 ng/ml, but showed a similar effect"
same,concentration dependence of fluorescence intensity in cells,[5],"as the concentration of peptide increased, the intensity of fluorescence also increased"
same,fluorescence of rhodamine B in cells,[5],fluorescence of rhodamine B (red) could be confirmed
same,concentration at which killed bacteria (red) were observed in biofilm,[6],≥ 50 µg/mL
same,IL-6 value,[7],lowered to a similar level as when treated with IL-4
same,expression of plkBa,[8]; [9],suppressed
same,effect on the expression of plkBa,"[8]; only the peptide, without LPS",no effect

# From patent US20250115642A1, “PEPTIDE HAVING ANTIBACTERIAL, ANTI-INFLAMMATORY OR TISSUE REGENERATION ABILITY AND USE THEREOF” (priority 2022, published 2025)
